pEC50: −log10 of the molar value. Starred links: 1 amine or outer side, 2 acyl side, 3 side chain; linkers in the order of their positions; H or OH if unused. Non-standard residues stand in square brackets, D forms with d. Residues, ends and D or L forms follow the SMILES beside them. Groups on a side chain read outwards from the residue. *: point of attachment. X2 = CCCCCCCCCCCCCCCC(=O)N[C@@H](CCC(=O)N[C@@H](CCC(=O)N[C@@H](CCC(=O)NCCCOCCOCCOCCCNC(=O)CCC(=O)NCCCOCCOCCOCCCNC(=O)CCC(=O)NCCCOCCOCCOCCCN*)C(=O)O)C(=O)O)C(=O)O; X1 = CCCCCCCCCCCCCCCC(=O)N[C@@H](CCC(=O)N[C@@H](CCC(=O)N[C@@H](CCC(=O)NCCCOCCOCCOCCCNC(=O)CCC(=O)NCCCOCCOCCOCCCN*)C(=O)O)C(=O)O)C(=O)O; Suc = O=C(CCC(=O)[*:2])[*:1]; αMeK = C[C@](N)(CCCCN)C(=O)O; Aib = CC(C)(N)C(=O)O
Legend:
Relaxin receptor 1 [1] = target: T1, Relaxin receptor 1 (Homo sapiens, UniProt Q9HBX9); assay: Agonist activity at human RXFP1 expressed in human OVCAR-5 cells assessed as intracellular cAMP accumulation incubated for 30 mins by HTRF assay; format: functional, cell-based
T1 sequence (Q9HBX9 whole entry): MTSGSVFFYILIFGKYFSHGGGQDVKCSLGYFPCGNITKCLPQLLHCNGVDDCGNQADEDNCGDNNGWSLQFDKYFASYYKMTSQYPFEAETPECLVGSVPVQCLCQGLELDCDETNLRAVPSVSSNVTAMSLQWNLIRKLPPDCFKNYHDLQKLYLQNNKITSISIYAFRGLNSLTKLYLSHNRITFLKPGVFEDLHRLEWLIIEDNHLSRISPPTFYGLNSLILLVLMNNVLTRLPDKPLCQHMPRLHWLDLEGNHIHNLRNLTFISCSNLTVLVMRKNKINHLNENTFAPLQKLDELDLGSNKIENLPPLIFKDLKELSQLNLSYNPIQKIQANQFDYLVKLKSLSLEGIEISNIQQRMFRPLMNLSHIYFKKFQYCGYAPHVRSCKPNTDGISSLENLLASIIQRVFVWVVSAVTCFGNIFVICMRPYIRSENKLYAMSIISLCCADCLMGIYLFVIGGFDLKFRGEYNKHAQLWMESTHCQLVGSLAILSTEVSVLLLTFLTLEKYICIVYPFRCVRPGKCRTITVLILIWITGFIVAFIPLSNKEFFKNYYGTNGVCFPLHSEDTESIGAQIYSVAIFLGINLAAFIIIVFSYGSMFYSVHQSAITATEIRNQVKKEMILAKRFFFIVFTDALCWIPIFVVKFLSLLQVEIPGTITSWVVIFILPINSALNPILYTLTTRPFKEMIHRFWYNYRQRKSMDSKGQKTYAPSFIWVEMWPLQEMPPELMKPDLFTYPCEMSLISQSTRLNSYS

[2] = target: T2, Relaxin receptor 1 (Homo sapiens) (UniProt Q9HBX9); assay: Agonist activity at human RXFP1 expressed in human OVCAR-5 cells assessed as intracellular cAMP accumulation by measuring maximal efficacy incubated for 30 mins by HTRF assay relative to control; format: functional, cell-based; conditions: filed as agonist
T2 sequence (whole entry): T1 sequence (Q9HBX9 whole entry)

Relaxin receptor 1 [3] = target: T1, Relaxin receptor 1; assay: Agonist activity at human RXFP1 expressed in 2%HSA treated human OVCAR-5 cells assessed as intracellular cAMP accumulation incubated for 30 mins with 2% HSA pretreated compound by HTRF assay; format: functional, cell-based
[4] = target: T2, Relaxin receptor 1 (Homo sapiens); assay: Agonist activity at human RXFP1 expressed in 2%HSA treated human OVCAR-5 cells assessed as intracellular cAMP accumulation by measuring maximal efficacy incubated for 30 mins with 2% HSA pretreated compound by HTRF assay relative to control; format: functional, cell-based; conditions: filed as agonist
[5] = Half-life in male Sprague-Dawley rat at 1 mg/kg, iv measured after 198 hrs by LC-HRMS analysis; format: ADME, organism-based; conditions: in vivo
[6] = AUC (0 to 24 hrs) in male Sprague-Dawley rat at 1 mg/kg, iv measured after 198 hrs by LC-HRMS analysis; format: ADME, organism-based; conditions: in vivo
[7] = Cmax in male Sprague-Dawley rat at 3 mg/kg, sc measured after 198 hrs by LC-HRMS analysis; format: ADME, organism-based; conditions: in vivo
[8] = Bioavailability in male Sprague-Dawley rat at 3 mg/kg, sc measured after 198 hrs by LC-HRMS analysis; format: ADME, organism-based; conditions: in vivo
[9] = Half-life in male Beagle dog at 1 mg/kg, iv measured after 198 hrs by LC-HRMS analysis; format: ADME, organism-based, Canis lupus familiaris; conditions: in vivo
[10] = Drug metabolism in male Beagle dog assessed as fatty acid chain oxidation mediated M+16 metabolite formation by measuring metabolite to parent compound AUC ratio at 1 mg/kg, iv measured after 198 hrs by LC-HRMS analysis; format: ADME, organism-based, Canis lupus familiaris; conditions: in vivo
[11] = Half-life in female Gottingen pig at 1 mg/kg, iv measured after 198 hrs by LC-HRMS analysis; format: ADME, organism-based, Sus scrofa; conditions: in vivo
[12] = Drug metabolism in female Gottingen pig assessed as fatty acid chain oxidation mediated M+16 metabolite formation by measuring metabolite to parent compound AUC ratio at 1 mg/kg, iv measured after 198 hrs by LC-HRMS analysis; format: ADME, organism-based, Sus scrofa; conditions: in vivo
[13] = Bioavailability in female Gottingen pig at 1 mg/kg, sc measured after 198 hrs by LC-HRMS analysis; format: ADME, organism-based, Sus scrofa; conditions: in vivo
[14] = Induction of mast cell degranulation in human LAD2 cells assessed as beta-hexosaminidase release by measuring 4-methylumbelliferyl N-acetyl-beta-D-glucosaminide hydrolysis incubated for 30 mins by plate reader analysis; format: toxicity, cell-based; conditions: probe 4-methylumbelliferyl N-acetyl-beta-D-glucosaminide
[15] = Induction of mast cell degranulation in human LAD2 cells assessed as beta-hexosaminidase release by measuring maximal efficacy of 4-methylumbelliferyl N-acetyl-beta-D-glucosaminide hydrolysis at 33 uM incubated for 30 mins by plate reader analysis relative to control; format: toxicity, cell-based; conditions: probe 4-methylumbelliferyl N-acetyl-beta-D-glucosaminide
Rattus norvegicus [16] = assay: Chronotropic effect in pithed male Sprague-Dawley rat assessed as increase in heart rate at 0.3 mg/kg, iv measured after 60 mins relative to control; format: functional; conditions: 1 h
[17] = Drug metabolism in male Sprague-Dawley rat assessed as fatty acid chain oxidation mediated M+16 metabolite formation by measuring metabolite to parent compound AUC ratio at 1 mg/kg, iv measured after 198 hrs by LC-HRMS analysis; format: ADME, organism-based; conditions: in vivo
Rattus norvegicus [18] = assay: Chronotropic effect in telemetered male Sprague-Dawley rat assessed as increase in heart rate administered subcutaneously and measured after 48 hrs; format: functional, organism-based; conditions: dose 0.1-1 mg/kg, route sc

SMILES	pEC50 (Relaxin receptor 1 [1])	Emax [2] [%]	pEC50 (Relaxin receptor 1 [3])	Emax [4] [%]	half-life [5] [h]	AUC(0-t) at 198 h [6] [µM·h]	Cmax [7] [nM]	bioavailability [8] [%]	half-life [9] [h]	Ratio AUC [10]	half-life [11] [h]	Ratio AUC [12]	bioavailability [13] [%]	EC50 at 30 min [14] [nM]	Emax at 0.5 h, 33 µM [15] [%]	Activity (Rattus norvegicus [16]) [%]	Ratio AUC [17]	Activity (Rattus norvegicus [18])
CCCCCCCCCCCCCCCC(=O)N[C@@H](CCC(=O)N[C@@H](CCC(=O)N[C@@H](CCC(=O)NCCCOCCOCCOCCCNC(=O)CCC(=O)NCCCOCCOCCOCCCNC(=O)CCC(=O)NCCCC[C@H](NC(=O)CNC(=O)[C@H](CCC(=O)O)NC(=O)C(C)(C)NC(=O)C(C)(C)NC(=O)[C@@H](NC(=O)[C@H](CCCCNC(C)=O)NC(=O)[C@H](C)NC(=O)[C@H](CCCNC(=N)N)NC(=O)[C@@H](NC(=O)[C@H](CCCCN)NC(=O)[C@H](CCC(=O)O)NC(=O)[C@H](CCCNC(=N)N)NC(=O)CNC(=O)[C@H](CCC(=O)O)NC(=O)[C@H](CC(C)C)NC(C)=O)C(C)C)[C@@H](C)CC)C(=O)N[C@@H](CO)C(=O)N[C@H](C(=O)N[C@@H](Cc1c[nH]c2ccccc12)C(=O)N[C@@H](CO)C(=O)NC(C)(C)C(=O)N[C@@H](CCCNC(=N)N)C(=O)N[C@@H](CCCCN)C(=O)N[C@@H](CCCCNC(C)=O)C(N)=O)[C@@H](C)O)C(=O)O)C(=O)O)C(=O)O (Ac-LEGREKVRAK(Ac)I[Aib][Aib]EGK([Suc-X1])STWS[Aib]RKK(Ac)-NH2)	8.89	95	6.84	81	8.7	19.5	2000	69	9.2	0.33	27.2	0.32	87	5500	58	31.4	–	–
CCCCCCCCCCCCCCCC(=O)N[C@@H](CCC(=O)N[C@@H](CCC(=O)N[C@@H](CCC(=O)NCCCOCCOCCOCCCNC(=O)CCC(=O)NCCCOCCOCCOCCCNC(=O)CCC(=O)NCCCOCCOCCOCCCNC(=O)CCC(=O)NCCCC[C@H](NC(=O)CNC(=O)[C@H](CCC(=O)O)NC(=O)C(C)(C)NC(=O)C(C)(C)NC(=O)[C@@H](NC(=O)[C@H](CCCCNC(C)=O)NC(=O)[C@H](C)NC(=O)[C@H](CCCNC(=N)N)NC(=O)[C@@H](NC(=O)[C@H](CCCCN)NC(=O)[C@H](CCC(=O)O)NC(=O)[C@H](CCCNC(=N)N)NC(=O)CNC(=O)[C@H](CCC(=O)O)NC(=O)[C@H](CC(C)C)NC(C)=O)C(C)C)[C@@H](C)CC)C(=O)N[C@@H](CO)C(=O)N[C@H](C(=O)N[C@@H](Cc1ccccc1)C(=O)N[C@@H](CO)C(=O)N[C@@](C)(CCCCN)C(=O)N[C@@H](CCCNC(=N)N)C(=O)N[C@@H](C)C(=O)N[C@@H](CCCCNC(C)=O)C(N)=O)[C@@H](C)O)C(=O)O)C(=O)O)C(=O)O (Ac-LEGREKVRAK(Ac)I[Aib][Aib]EGK([Suc-X2])STFS[αMeK]RAK(Ac)-NH2)	–	97	7.58	86	7.8	–	–	–	8.8	0.11	22.3	0.25	74	> 33000	48	40.3	< 0.01	Dose-dependent-effect

Reference: ChEMBL document CHEMBL6096738, “Optimization of Single Relaxin B-Chain Peptide Leads to the Identification of R2R01, a Potent, Long-Acting RXFP1 Agonist for Cardiovascular and Renal Diseases” (J Med Chem, 2025)
